The text below walks through data of patent publication US8647610B2, “Use of melanin biosynthesis inhibitors from korean ginseng and the cosmetic composition containing thereof for skin whitening” (Amorepacific Corporation, priority 2007, dated 2014).

Experiment [1] has as its system Mouse melanocytes (Mel-Ab cells). The experiment is described as follows: Melanin production inhibitory effect using mouse melanocytes (Dooley method). Conditions: 10 ppm of test substance for 3 days, absorbance at 400 nm. In kind it is cell-based.
For a further experiment, the system named is human skin. The experiment is described as follows: Whitening effect on human skin after UVB-induced blackness. To be noted: 10 weeks, colorimeter. In kind it is in vivo. From the text: An opaque tape having a perforated hole of a 1.5 cm-diameter was attached to the upper arm of each of 12 healthy men. Then, UV rays (UVB) were irradiated to each of the subjects at a dose 1.5-2 times higher than the minimal erythema dose, thus inducing skin's blackness.
After the UV irradiation, a 1 wt % solution of each of the test samples (1,3-butyleneglycol: ethanol=7:3, as a vehicle) was applied to the skin of each subject. As negative and positive control groups, a 3 wt % solution of each of […] was applied to the skin of each subject. […] The skin color was measured with a colorimeter (Minolta, Japan) at a 1-week interval. Then, the difference (ΔL*) in skin color between the time point of application and the time point of completion of application of each sample was calculated according to the following equation 2, and the calculation results are shown in Table 2 below. Meanwhile, the whitening effect of each sample was evaluated by comparing ΔL* between the site applied with each sample and the control site.

The mark [2] stands for this setting: 1 wt % solution in 1,3-butyleneglycol:ethanol=7:3 applied to UVB-irradiated upper arm of 12 healthy men.

Consider “20-O-β-D-glucopyranosyl-20(S)-protopanaxatriol [Example 2]”, for which the “Melanin production inhibitory rate (%)” value in experiment [1] turned out to be 33.6%. Besides, in the experiment on human skin (setting [2]), the “Lightless (ΔL*) of skin color” value was determined as 1.67 ± 0.17. The corresponding values for “20-O-β-D-glucopyranosyl-20(S)-protopanaxatriol [Example 3]” are 34.2% and 1.71 ± 0.13. For the compound “20-O-β-D-glucopyranosyl-20(S)-protopanaxatriol [ginsenoside F1]”, the “Lightless (ΔL*) of skin color” value with human skin (setting [2]) was “higher than 1.6”. `O=c1cc(CO)occ1O` [Kojic acid, reference compound]: the inhibition at 10 ppm in experiment [1] (Mus musculus, 72 h, read-out: Melanin production inhibitory rate (%)) is 30.5%. The “Lightless (ΔL*) of skin color” value in the experiment with human skin (3 wt % solution (positive control) applied to UVB-irradiated upper arm of 12 healthy men) is reported as 1.56 ± 0.11.

In the case of “20-O-β-D-glucopyranosyl-20(S)-protopanaxatriol [Example 4]”, in experiment [1], the “Melanin production inhibitory rate (%)” value amounted to 34.9%. Also, in the experiment with human skin (setting [2]), the “Lightless (ΔL*) of skin color” value came out at 1.64 ± 0.21. In the case of “20-O-β-D-glucopyranosyl-20(S)-protopanaxatriol [Example 1]”, the “Melanin production inhibitory rate (%)” value in experiment [1] is reported as 35.1%. In addition, in the experiment on human skin (setting [2]), the “Lightless (ΔL*) of skin color” value was found to be 1.60 ± 0.13.
